Where “and” joins values, the source holds several entries; their conditions need not be identical. Equal values may be shown once. Entries after “also recorded” stand apart in the source; their conditions may differ.
Columns and labels:
rat α7 nAChR = rat α7 nAChR (Rattus norvegicus, UniProt Q05941); experiment: cell-based; format: binding
Protocol: Binding studies with rat α7 nAChR were done using the rat pheochromocytoma cell line PC12 that endogenously expresses the α7 nAChR (American Type Culture Collection, Manassas, VA). PC12 cells were maintained in Ham F-12 nutrient mixture, containing 15% horse serum, 2.5% fetal bovine serum (FBS), 2 mM L-glutamine, 1.5 g/L NaHCO3, 100 units of penicillin, and 100 μg streptomycin.
For the binding assay, PC12 cells were resuspended in binding buffer (phosphate buffered saline with calcium and magnesium, containing 1% FBS and 0.02% NaN3) at 1.5 to 2.7 × 10^6 cells per ml and 55 μl (0.8–1.5 × 10^5 cells per well) was added to a 96-well, v-bottom plate. […]
Phycoerythrin-labeled streptavidin (streptavidin-PE) (Becton-Dickinson, Franklin Lakes, NJ) was diluted in binding buffer and 50 μl was added to the cells (excluding the cell control) at a 1.0 μg/ml final concentration. […] BTx binding was quantified by fluorescence-activated cell sorting (FACS) analysis. For each concentration of test compound, the displacement of BTx from the α7 nAChR was quantified by measuring the intensity of the fluorescent signal. […] Ki values were calculated from IC50 values using the Cheng-Prusoff equation: Ki=IC50/1+[BTx]/KD

[1] = pharmacokinetics in CD1 mice; format: in vivo, mouse; conditions: for Kp at 30 min: CD1, mouse, brain, read-out: Brain penetration; for Kp at 30 min / Brain penetration: relative to plasma level 30 min after 1 mg/kg IV; for bioavailability: read-out: %F (bioavailability)
Protocol: Pharmacokinetic studies were carried out at Cerep using non-cannulated, non-fasted CD1 mice (Charles River Laboratories, Wilmington, MA). PMP-311 or PMP-072 were formulated in phosphate buffered saline (PBS), pH 7.4, as a clear solution and 1 mg/kg was administered by bolus intravenous (IV) injection or 5 mg/kg by oral gavage. Plasma samples were obtained from 3 mice per time point at 15, 30, 60, 120, 240, 360, 480 and 1440 min post-dose. The plasma samples were processed using acetonitrile precipitation and analyzed by HPLC-MS or HPLC-MS/MS to determine the concentration of drug as compared to a plasma calibration curve (aliquots of drug-free plasma were spiked with the test compound at the specified concentration levels and processed together with the unknown plasma samples using the same procedure). The processed plasma samples were stored frozen (−20°C) until the HPLC-MS/MS analysis. Peak areas were recorded, and the concentrations of the test compound in the unknown plasma samples were determined using the respective calibration curve. The reportable linear range of the assay was determined, along with the lower limit of quantitation (LLQ).
Plots of plasma concentration of compound versus time were constructed. The fundamental pharmacokinetic parameters of compound after oral and IV dosing (Cmax: maximum concentration, Tmax: time to maximum concentration, T1/2: terminal elimination half-life, AUC: area under the curve, CI: clearance, Vd: volume of distribution, and %F: bioavailability) were obtained from the non-compartmental analysis of the plasma data using WinNonlin (Pharsight, St. Louis, MO).

[2] = system: collagen-induced arthritis; experiment: collagen-induced arthritis in DBA/1 mice; conditions: for disease incidence and onset: 5 mg/kg oral daily day 20-34
Protocol: Collagen-induced arthritis was induced and evaluated as previously described. The severity of arthritis was assessed using an established semiquantitative scoring system (0–4; 0 = normal, 1 = swelling in 1 joint, 2 = swelling in >1 joint, 3 = swelling in the entire paw, and 4 = deformity and/or ankylosis. The cumulative score for all 4 paws of each mouse was used to represent overall disease severity and progression. Hind paw ankle joint thickness was measured using a caliper For the evaluation of incidence, mice were considered to have arthritis if the arthritis score increased by at least 1 point for 2 or more following days.
In study 1, we evaluated the role of the two novel α7nAChR-specific modulators in CIA. The receptors were stimulated by oral gavage of PMP-311 (5 mg/kg; n = 15) or PMP-072 (5 mg/kg; n = 17). The compounds were administered once a day from day 20 until the end of the experiment (day 34). Control mice received saline. In study 2, we evaluated the anti-inflammatory effects of different dosages of the α7nAChR-specific agonists. PMP-311 (2 or 10 mg/kg; n = 15) and PMP-072 (10 or 20 mg/kg; n = 15) were administered in the same way as in study 1. In both studies, mice were inspected daily for signs of arthritis and thickness of hind paws was measured using a caliper from day 16 till sacrifice by 2 independent observers (MAvM and JK) who were not aware of the treatment.
Hind paws were used for radiographic evaluation. Joint destruction was scored on a scale of 0–4, where 0 = no damage, 1 = demineralization, 2 = 1 or 2 erosions, 3 = severe erosions, and 4 = complete destruction of the joints. The radiographs were scored by 2 independent observers (MAvM and MJV) in a blinded manner; minor differences in scoring between the observers were resolved by mutual agreement.
Hind paws were fixed for 24 hours in 10% buffered formalin and decalcified in 15% EDTA. The paws were then embedded in paraffin, and serial 5 μm sagittal sections of whole hind paws were cut and stained with hematoxylin and eosin (HE). Two independent observers (MAvM and MJV) assessed the tissue for the degree of synovitis by microscopic evaluation, under blinded conditions, as described previously. Synovitis was graded on a scale of 0 (no inflammation) to 3 (severely inflamed joint) based on the extent of infiltration of inflammatory cells into the synovium.
To evaluate the effects of different treatments, we determined the change in clinical arthritis scores in each mouse from the start of treatment until the end of the experiment. AUC for the change in arthritis scores were calculated. The significance of the differences in the mean changes in scores (clinical, radiologic and histologic) between groups was determined by Kruskal-Wallis test followed by Mann-Whitney U test (SPSS version 12.0.2; SPSS, Chicago, IL). Incidence was compared using Kaplan-Meier survival analysis (GraphPad Prism). P values less than 0.05 were considered statistically significant.

[3] = CD1, plasma, mouse, 5 mg/kg oral
[4] = study 1, 5 mg/kg oral daily day 20-34

Sequence of rat α7 nAChR (Q05941 23-502): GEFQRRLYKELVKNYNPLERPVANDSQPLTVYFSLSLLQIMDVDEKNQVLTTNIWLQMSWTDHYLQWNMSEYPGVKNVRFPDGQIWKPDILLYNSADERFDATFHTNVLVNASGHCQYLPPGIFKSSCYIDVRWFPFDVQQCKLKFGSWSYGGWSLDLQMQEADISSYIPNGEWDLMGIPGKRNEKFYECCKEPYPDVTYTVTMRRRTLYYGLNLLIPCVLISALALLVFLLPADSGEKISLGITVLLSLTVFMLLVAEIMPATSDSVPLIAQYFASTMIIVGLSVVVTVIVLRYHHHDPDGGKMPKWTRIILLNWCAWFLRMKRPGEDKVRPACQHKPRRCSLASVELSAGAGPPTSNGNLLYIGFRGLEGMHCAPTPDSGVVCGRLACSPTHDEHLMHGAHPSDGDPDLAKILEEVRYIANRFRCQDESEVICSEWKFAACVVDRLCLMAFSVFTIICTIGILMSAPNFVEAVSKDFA

COc1ccc(NC(=O)N2CCNC[C@@H]2COc2cccnc2)cc1 [PMP-072, (R)-N-(4-methoxyphenyl)-2-((pyridin-3-yloxy)methyl)piperazine-1-carboxamide]
Ki (rat α7 nAChR): 6.9 ± 1.4 nM
Kp at 30 min [1]: 0.06
Vd ([1]; CD1, plasma, mouse, 1 mg/kg IV): 5.83 L/kg
half-life ([1]; CD1, plasma, mouse, 1 mg/kg IV): 39 min
AUC [1, 3]: 588 ng·h/mL
Cmax [1, 3]: 324 ng/mL and 940 nM
Tmax [1, 3]: 30 min
bioavailability [1, 3]: 76%
Cl ([1]; mouse, 1 mg/kg IV): 103 mL/min/kg
T1/2 ([1]; mouse, 5 mg/kg oral): 104 min
Brain penetration [1]: 6%
effect on arthritis activity ([2]; 5 mg/kg oral daily): did not significantly ameliorate arthritis activity; also recorded: trend towards improvement
joint destruction (radiographic score) ([2]; 5 mg/kg oral daily): did not reduce bone degradation
disease incidence and onset [2]: trend towards reduced incidence of disease
joint destruction (radiographic score) ([2]; 10 mg/kg oral daily): trend towards reduced joint destruction
paw swelling ([2]; 10 mg/kg oral daily): decrease in paw swelling
reduction in arthritis score compared to saline ([2]; 10 mg/kg oral daily): 48%
synovial inflammation (synovitis score) ([2]; 10 mg/kg oral daily): significantly lower scores for synovitis
effect on arthritis score ([2]; 20 mg/kg oral daily): no improvement
tolerability of treatment [2, 4]: tolerated the drug treatment well
tolerability of treatment ([2]; study 2, PMP-311 2 and 10 mg/kg, PMP-072 10 and 20 mg/kg): tolerated the drug treatments well

c1cncc(OC[C@@H]2CNCCN2c2nc3ncccc3o2)c1 [PMP-311, (S)-2-(2-((Pyridin-3-yloxy)methyl)piperazin-1-yl)oxazolo[4,5-b]pyridine]
Ki (rat α7 nAChR): 0.9 ± 0.2 nM
Kp at 30 min [1]: 0.44
Vd ([1]; CD1, plasma, mouse, 1 mg/kg IV): 1.94 L/kg
clearance ([1]; CD1, plasma, mouse, 1 mg/kg IV): 72 mL/min/kg
half-life ([1]; CD1, plasma, mouse, 1 mg/kg IV): 19 min
AUC [1, 3]: 567 ng·h/mL
Cmax [1, 3]: 787 ng/mL and 2.5 µM
Tmax [1, 3]: 15 min
half-life [1, 3]: 98 min
bioavailability [1, 3]: 50%
Brain penetration [1]: 44%
joint destruction (radiographic score) ([2]; 2 mg/kg oral daily): significant reduction in joint destruction
mice that developed arthritis ([2]; 2 mg/kg oral daily): 14 out of 15
paw swelling ([2]; 2 mg/kg oral daily): decreased
reduction in arthritis score compared to saline ([2]; 2 mg/kg oral daily): 40%
synovial inflammation ([2]; 2 mg/kg oral daily): significant reduction
animals that did not develop arthritis ([2]; 5 mg/kg oral daily): six out of 15
effect on arthritis activity ([2]; 5 mg/kg oral daily): amelioration of clinical signs of arthritis
joint destruction (radiographic score) ([2]; 5 mg/kg oral daily): significant reduction in joint destruction
synovial inflammation (HE staining of knee joints) ([2]; 5 mg/kg oral daily): significant reduction of synovial inflammation
disease incidence and onset [2]: reduced disease incidence and delayed onset of disease
reduction in clinical score compared to saline ([2]; 5 mg/kg oral daily, dose-response comparison): 49%
joint destruction (radiographic score) ([2]; 10 mg/kg oral daily): significantly decreased
reduction in arthritis score compared to saline ([2]; 10 mg/kg oral daily): 39%
decrease in paw swelling compared to saline-treated mice [2, 4]: 39%
decrease of AUC of clinical score compared to control mice [2, 4]: 51%

Reference: publication PMC4305287, “Two Novel α7 Nicotinic Acetylcholine Receptor Ligands: In Vitro Properties and Their Efficacy in Collagen-Induced Arthritis in Mice” (PLoS ONE, 2015)
